Measurements: US4940726A, “Cell growth inhibitory macrocyclic lactones denominated Combretastatin D-1 and Combretastatin D-2” (Arizona Board of Regents, priority 1989, dated 1990)
Converted amounts (≈) assume the structure as drawn.

System: murine P388 lymphocytic leukemia (PS) cell line
Experiment: murine P388 lymphocytic leukemia (PS system) cell line growth inhibition, standard National Cancer Institute protocol
Assay type: cell-based

SMILES	PS cell line activity ED50 (murine P388 lymphocytic leukemia (PS system) cell line)	IC50 (Mus musculus, P388, murine P388 lymphocytic leukemia (PS system) cell line, read-out: PS cell line activity ED50)
O=C1CCc2ccc(O)c(c2)Oc2ccc(cc2)/C=C\CO1 [Combretastatin D-2]	5.2 µg/mL	–
O=C1CCc2ccc(O)c(c2)Oc2ccc(cc2)[C@@H]2O[C@@H]2CO1 (relative stereo) [Combretastatin D-1]	–	3.3 µg/mL (≈ 10.6 µM)
